Reference: PubChem BioAssay AID489023 (Sanford-Burnham Center for Chemical Genomics, 2010)
The source made the active and inactive calls. How the calls were made is not given here.

System: 697B cells, BCR-induced NF-kB luciferase reporter luminescence
Experiment: inhibitors of BCR-induced NF-kB activation, dose response, 697B cells, luciferase luminescence (AID 489023)

SMILES | IC50
COc1ccc(-c2noc(N3CCC(C(=O)Nc4ccc(OC)c(OC)c4)CC3)n2)cc1 | > 80 µM (inactive)
Cn1c(=O)n(C)c2cc(/C=C3/NC(=O)N(Cc4ccccc4)C3=O)ccc21 | > 80 µM (inactive)
Oc1[nH]c2ccccc2c1N=Nc1nc(Nc2ccccc2)nc(N2CCOCC2)n1 | 1.36 µM
Cc1noc(C)c1CSc1nc2[nH]ncc2c(=O)n1-c1ccccc1 | > 80 µM (inactive)
CC(C)CCNC(=O)CCCOc1cc(=O)n(C)c2ccccc12 | 64.3 µM (inactive)
CCn1c(CN2CCN(c3ccc(Cl)cc3)CC2)nc2ccccc21 | > 80 µM (inactive)
COc1ccc(OC)c(S(=O)(=O)Nc2ccc(-c3ccc4nnc(C)n4n3)cc2)c1 | > 80 µM (inactive)
CC(C)Oc1ccc(C(=O)Nc2ccc(N(C)C)cc2)cc1 | 61.3 µM (inactive)
CSC1CCCCC1(O)CSc1nc2c(cc1C#N)CCCC2 (stereo not given) | > 80 µM (inactive)
CCC(=O)N1c2ccccc2[C@@H](N(C(C)=O)c2ccccc2)C[C@H]1C | 58.2 µM (inactive)
Cc1c(CCO)c(=O)oc2n[nH]c(-c3ccccc3)c12 | 13.8 µM
Cc1nc2cc(-c3cccc(F)c3)nn2c(C)c1CCC(=O)N1CCC2(CC1)OCCO2 | 49.5 µM (inactive)
Cc1cccn2c(=O)c3cc(C(=O)NC4CCCCC4)c(=N)n(CCN4CCOCC4)c3nc12 | > 80 µM (inactive)
CC(C)(C)c1ccc(-c2cc(N)n[nH]2)cc1 | 15.6 µM
Cc1ccc(-c2cn(-c3ccccc3)c3[n+]2CCCS3)cc1 | > 80 µM (inactive)
CC(C)(C)c1ccc(-c2noc(CCC(=O)N3CCOCC3)n2)cc1 | 51.6 µM (inactive)
CCN1C(=O)Nc2cccc3cccc1c23 | 35.2 µM (inactive)
COc1ccc(/C=C2\SC(=S)N(CCC(=O)Nc3ccc(C(=O)O)cc3)C2=O)cc1OC | > 80 µM (inactive)
CC(C)c1ccc(/C=C2\SC(=S)N(CCC(=O)N3CCCCC3CCO)C2=O)cc1 (stereo not given) | 1.63 µM
CCn1c(=O)cc(SCC(=O)N2CCN(C)CC2)c2ccccc21 | > 80 µM (inactive)
CCOCCCNc1nc2c(C)cccn2c(=O)c1/C=C1\SC(=S)N(C(C)CC)C1=O (stereo not given) | 36.3 µM (inactive)
CCCCCCn1c(-c2ccco2)nc2oc3cc(OC)ccc3c(=O)c2c1=O | > 80 µM (inactive)
Cc1ccc(/C=C2\SC(=S)N(CCCC(=O)NC3CCCC3)C2=O)cc1 | 1.13 µM
CCCNC(=O)CSCc1nc(-c2ccc(SC)cc2)oc1C | 31.6 µM (inactive)

SMILES | IC50
Cc1nc(Nc2c(Cl)cccc2Cl)sc1C(=O)Nc1ccccc1 | 50.1 µM (inactive)
COc1cc2c3c(c1)c(N=NC(N)=S)c(O)n3C(C)(C)C=C2C | > 80 µM (inactive)
COc1ccc(C(C(=O)NC2CCCCC2)N(C(=O)CCl)c2ccc(Cl)cc2)cc1 (stereo not given) | 0.85 µM
O=C(Nc1cccc(Oc2ccc3c(c2)C(=O)NC3=O)c1)c1cccs1 | > 80 µM (inactive)
CC(C)OCCCNC(=O)c1c(N)n(/N=C/c2ccccn2)c2nc3ccccc3nc12 | > 80 µM (inactive)
COc1ccccc1/C=C1\SC(=S)N(CCC(=O)Nc2nnc(C)s2)C1=O | > 80 µM (inactive)
COc1ccc(OC)c(NC(=O)c2[nH]c(C)c(C(C)=O)c2C)c1 | > 80 µM (inactive)
COc1cc(C[C@@H]2C(=O)OC[C@H]2Cc2ccc(OC)c(OC)c2)ccc1O | > 80 µM (inactive)
Cc1cc(C)c2nc(NC(=O)[C@@H](NC(=O)c3cccc(S(=O)(=O)N4CCOCC4)c3)C(C)C)sc2c1 | 16 µM
CC1=CC(C)(C)Nc2ccc(OC(=O)c3cccnc3)cc21 | 14.3 µM
CC(C)C(c1nnnn1Cc1ccccc1)N(Cc1ccco1)Cc1cccs1 (stereo not given) | > 80 µM (inactive)
O=C(CCCN1C(=O)S/C(=C/C=C/c2ccccc2)C1=O)Nc1ccc(C(=O)O)cc1 | > 80 µM (inactive)
CC(=C/c1ccco1)/C=N/NC(=O)CSc1nnc(SCc2ccc(C)cc2)s1 | > 80 µM (inactive)
O=C(CCCN1C(=O)/C(=C/c2ccccc2Cl)SC1=S)NNC(=O)c1ccc(Cl)cc1Cl | 3.1 µM
Cc1cc(OCC(=O)N2CCC(C(N)=O)CC2)c2c3c(c(=O)oc2c1)CCCC3 | > 80 µM (inactive)
Cn1c(=O)cc(Nc2ccccc2)c2c(=O)n(-c3ccccc3)c(=O)n(-c3ccccc3)c21 | 5.6 µM
Cc1ccc(Nc2nc(N3CCOCC3)nc(N3CCOCC3)n2)cc1C | 1.33 µM
CCC(C)[C@H](N)c1nnc(SCC(=O)c2ccc(Cl)cc2)o1 (stereo not given in full) | > 80 µM (inactive)
CC1CC(C)(C)Nc2ccc(OC(=O)c3ccco3)cc21 (stereo not given) | 9.11 µM
Cc1cc(C)c2nc(NC(=O)C3CSC4(C)CCC(=O)N34)sc2c1 (stereo not given) | 32.2 µM (inactive)
CCc1ccc(/C=C2\SC(=S)N(CCC(=O)Nc3cc(C)on3)C2=O)cc1 | 19.3 µM
CCOc1ccc(S(=O)(=O)NCc2ccncc2)cc1NC(=O)c1ccccc1 | > 80 µM (inactive)
CCN(CC)c1ccc(/C=N/N=C(c2ccccc2)c2ccccc2)c(O)c1 | > 80 µM (inactive)
CCn1c(=O)cc(OCC(=O)Nc2ccc(OC)c(OC)c2)c2ccccc21 | > 80 µM (inactive)

SMILES | IC50
CCN(CC)CCOC(=O)c1ccc(NC(=O)CCCN2C(=O)S/C(=C/c3ccc(OC)cc3)C2=S)cc1 | 2.11 µM
Cc1ccc(/C=C2\SC(=S)N(CCCC(=O)Nc3cccnc3)C2=O)cc1 | 0.25 µM
C=C1C(=O)[C@@]23C[C@H]4[C@@H]5[C@@]6(C)CCC[C@@]57[C@@H]2[C@@H](O)[C@@H]1C[C@H]3[C@H]7N4C6 | 2.89 µM
Cc1ccc(S(=O)(=O)CC2CSc3nc4ccccc4n32)cc1 (stereo not given) | > 80 µM (inactive)
Cc1cc(C)c(CN2CCN(C(=O)Cn3cnc4c(NCc5ccccc5)ncnc43)CC2)c(C)c1 | 52.7 µM (inactive)
COc1ccc(-c2ccc(C)cc2)cc1[C@H]1[C@H]2C=CC[C@@H](C)[C@@H]2C(=O)N1Cc1ccccc1 | > 80 µM (inactive)
N#Cc1ccccc1COc1ccc(/C=C/C(=O)O)cc1 | 14.9 µM
CCOc1ccc(/C=C2\SC(=S)N(CCC(=O)Nc3cccc(C(=O)O)c3)C2=O)cc1 | 8.87 µM
COc1ccc(-c2nn(C)c(=O)c3ccccc23)cc1NS(C)(=O)=O | 39.9 µM (inactive)
COc1ccc(C=C(C(C)=O)C(C)=O)cc1OC | 57.7 µM (inactive)
O=C(CSCCO)Nc1ccc(C23CC4CC(CC(C4)C2)C3)cc1 | > 80 µM (inactive)
CNC(=O)c1cccn(Cc2ccc(C(F)(F)F)cc2)c1=O | 47.9 µM (inactive)
CN1C(=O)c2cccc3c(S(=O)(=O)Nc4ccccc4F)ccc1c23 | 57.4 µM (inactive)
Cc1ccc(C(=O)CSc2nnc(COc3ccccc3)o2)cc1 | > 80 µM (inactive)
O=C(CN1C(=O)c2ccccc2S1(=O)=O)N1CCc2ccccc21 | 1.24 µM
COc1cc(-c2nc(C(=O)NCC3CCCO3)cc3c2[nH]c2ccccc23)cc(OC)c1OC (stereo not given) | 12.2 µM
CCOc1ccc(-c2nc(CSCC(=O)NCc3ccco3)c(C)o2)cc1 | 0.32 µM
Cc1nc2cc(-c3ccccc3)nn2c(C)c1CCC(=O)N1CCC2(CC1)OCCO2 | > 80 µM (inactive)
COc1ccc(-c2csc3nc(-c4cccnc4)nc(N4CCC(C(N)=O)CC4)c23)cc1OC | 44.2 µM (inactive)
Cc1cc(C)c(S(=O)(=O)NCc2ccncc2)c(C)c1 | > 80 µM (inactive)
Cc1ccc(/C=C2\SC(=S)N(CCCC(=O)NNC(=O)c3ccccc3O)C2=O)cc1 | 1.26 µM
CCOc1ccc(-c2nc(CSCC(=O)NC3CC3)c(C)o2)cc1 | 0.28 µM
